Structures can show the parent of a compound that is named as a salt.
Test system: not given
Assay: not given
Settings: not given

**Q.** Which melting point does the source give for `CCCN(CCC)CCc1ccc2c(c1)N(Cc1cccc3ccccc13)CCO2.Cl` here?
**A.** Its melting point is 177 to 178 °C.

**Q.** With `CN1CCc2ccc(C(=O)CCCN3CCC(c4ccc(Cl)cc4)CC3)cc2CC1` (as salt: HCl) (hydrate or solvate) [Example 35, 4-[4-(4-Chlorophenyl)-1-piperidinyl]-1-(3-methyl-2,3,4,5-tetrahydro-1H-3-benzazepin-7-yl)-1-butanone] as the compound, how does the melting point read?
**A.** Its melting point is 248 to 252 °C (dec.).

**Q.** Which melting point does the source give for `O=C(CCCN1CCC(c2ccc(Cl)cc2)CC1)c1ccc2c(c1)CCNCC2` (as salt: HCl) [Example 34, 4-[4-(4-Chlorophenyl)-1-piperidinyl]-1(2,3,4,5-tetrahydro-1H-3-benzazepin-7-yl)-1-butanone] here?
**A.** Its melting point is 243 to 247 °C (dec.).

**Q.** For `CN(C)C/C=C/c1ccc2c(c1)N(C(=O)c1ccc(-c3ccccc3)cc1)CCCC2` (as salt: hydrochloride) [Example 2, (E)-3-[1-([1,1′-Biphenyl]-4-ylcarbonyl)-2,3,4,5-tetrahydro-1H-1-benzazepin-8-yl]-N,N-dimethyl-2-propen-1-amine hydrochloride], which melting point is on record?
**A.** The melting point was 112 to 113 °C.

**Q.** For `CN(C)CCCc1ccc2c(c1)N(C(=O)c1ccc(-c3ccccc3)cc1)CCCC2` (as salt: hydrochloride) [Example 3, 3-[1-([1,1′-Biphenyl]-4-ylcarbonyl)-2,3,4,5-tetrahydro-1H-1-benzazepin-8-yl]-N,N-dimethyl-1-propanamine hydrochloride], which melting point is on record?
**A.** The melting point was 84 to 86 °C.

**Q.** For `CCCN(CCC)CCc1ccc2c(c1)N(S(=O)(=O)c1ccc(Cl)cc1)CCO2` (as salt: succinate) [Example 137, 4-(4-Chlorobenzenesulfonyl)-3,4-dihydro-6-[2-(N,N-dipropylamino)ethyl]-2H-1,4-benzoxazine succinate], which melting point is on record?
**A.** The melting point was 130 to 133 °C.

**Q.** Which melting point does the source give for `CN(C)CCCc1ccc2c(c1)CCCN2C(=O)c1ccc(-c2ccccc2)cc1` [Example 1, 3-[1-([1,1′-Biphenyl]-4-ylcarbonyl)-1,2,3,4-tetrahydro-6-quinolinyl]-N,N-dimethyl-1-propanamine] here?
**A.** Its melting point is 100 to 101 °C.

**Q.** With `CN(C)C/C=C/c1ccc2c(c1)CCCN2C(=O)c1ccc(-c2ccc(Cl)cc2)cc1` [Example 5, (E)-3-[1-[(4′-Chloro[1,1-biphenyl]-4-yl)carbonyl]-1,2,3,4-tetrahydro-6-quinolinyl]-N,N-dimethyl-2-propen-1-amine] as the compound, how does the melting point read?
**A.** The melting point was 162 to 164 °C.

**Q.** Which melting point does the source give for `O=C(c1ccc(-c2ccc(Cl)cc2)cc1)N1CCCc2cc(/C=C/CN3CCCCC3)ccc21` [Example 6, 1-[(4′-Chloro[1,1-biphenyl]-4-yl)carbonyl]-6-[(E)-3-piperidino-1-propenyl]-1,2,3,4-tetrahydroquinoline] here?
**A.** Its melting point is 141 to 143 °C.

**Q.** Which melting point does the source give for `CN(C)C/C=C/c1ccc2c(c1)CCN2C(=O)c1ccc(-c2ccccc2)cc1` [Example 7, (E)-3-[1-[([1,1′-Biphenyl]-4-yl)carbonyl]-2,3-dihydro-1H-indol-5-yl]-N,N-dimethyl-2-propen-1-amine] here?
**A.** The melting point was 174 to 176 °C.

**Q.** With `COc1ccc(COc2ccc(C(=O)N3CCc4cc(/C=C/CN(C)C)ccc43)cc2)cc1` [Example 9, (E)-3-[1-[4-[(4-Methoxybenzyl)oxy]benzoyl]-2,3-dihydro-1H-indol-5-yl]-N,N-dimethyl-2-propen-1-amine] as the compound, how does the melting point read?
**A.** The melting point was 164 to 166 °C.

**Q.** With `O=C(CCC(=O)N1CCC(c2ccc(Cl)cc2)CC1)c1ccc2c(c1)CCN(C(=O)C(F)(F)F)CC2` [Example 14, 4-[4-(4-Chlorophenyl)-1-piperidinyl]-4-oxo-1-[3-(trifluoroacetyl)-2,3,4,5-tetrahydro-1H-3-benzazepin-7-yl]-1-butanone] as the compound, how does the melting point read?
**A.** Its melting point is 131 to 132 °C.

**Q.** With `O=C(CCC(=O)N1CCC(c2ccc(Cl)cc2)CC1)c1ccc2c(c1)CCNCC2` [Example 15, 4-[4-(4-Chlorophenyl)-1-piperidinyl]-4-oxo-1-(2,3,4,5-tetrahydro-1H-3-benzazepin-7-yl)-1-butanone] as the compound, how does the melting point read?
**A.** The melting point was 148 to 149 °C.

**Q.** Which melting point does the source give for `CN1CCc2ccc(C(=O)CCC(=O)N3CCC(c4ccc(Cl)cc4)CC3)cc2CC1` [Example 16, 4-[4-(4-Chlorophenyl)-1-piperidinyl]-4-oxo-1-(3-methyl-2,3,4,5-tetrahydro-1H-3-benzazepin-7-yl)-1-butanone] here?
**A.** Its melting point is 143 to 145 °C.

**Q.** With `O=C(CCC(=O)N1CCC(c2ccccc2)CC1)c1ccc2c(c1)CCN(C(=O)C(F)(F)F)CC2` [Example 31, 4-Oxo-4-(phenyl-1-piperidinyl)-1-[3-(trifluoroacetyl)-2,3,4,5-tetrahydro-1H-3-benzazepin-7-yl]-1-butanone] as the compound, how does the melting point read?
**A.** The melting point was 132 to 133 °C.

**Q.** With `O=C(CCC(=O)N1CCC(c2ccccc2)CC1)c1ccc2c(c1)CCNCC2` [Example 32, 4-Oxo-4-(phenyl-1-piperidinyl)-1-(2,3,4,5-tetrahydro-1H-3-benzazepin-7-yl)-1-butanone] as the compound, how does the melting point read?
**A.** Its melting point is 114 °C.

**Q.** For `CCCN(CCC)C(=O)Cc1ccc2c(c1)NC(=O)CO2` [Example 133, N,N-Dipropyl-(3,4-dihydro-2H-1,4-benzoxazine-3-oxo-6-yl) acetamide], which melting point is on record?
**A.** The melting point was 121 to 122 °C.

**Q.** Which melting point does the source give for `O=C(CCC(=O)N1CCC(c2ccc(Cl)cc2)CC1)c1ccc2c(c1)CCN(CC1CCCO1)CC2` (stereo not shown) [Example 194, 4-[4-(4-Chlorophenyl)-1-piperidinyl]-4-oxo-1-[3-(tetrahydro-2-furanylmethyl)-2,3,4,5-tetrahydro-1H-3-benzazepin-7-yl]-1-butanone] here?
**A.** The melting point was 123 to 125 °C.

**Q.** Which melting point does the source give for `O=C(CCC(=O)N1CCC(c2ccc(Cl)cc2)CC1)c1ccc2c(c1)CCN(C1CCCCC1)CC2` [Example 195, 4-[4-(4-Chlorophenyl)-1-piperidinyl]-1-(3-cyclohexyl-2,3,4,5-tetrahydro-1H-3-benzazepin-7-yl)-4-oxo-1-butanone] here?
**A.** The melting point was 128 to 130 °C.

**Q.** For `O=C(CCCC(=O)N1CCC(c2ccc(Cl)cc2)CC1)c1ccc2c(c1)CCNCC2` [Example 205, 5-[4-(4-Chlorophenyl)-1-piperidinyl]-5-oxo-1-(2,3,4,5-tetrahydro-1H-3-benzazepin-7-yl)-1-pentanone], which melting point is on record?
**A.** Its melting point is 112 to 113 °C.

Target: SLC-1 (UniProt Q99705)
Assay: Determination of antagonist activity using GTPγS binding assay
Assay type: biochemical, human, rat
Settings: inhibition of MCH-stimulated [35S]-GTPγS binding, SLC-1 expressing CHO cell membrane fractions, 25° C., 1 hour
Protocol: Membrane fraction was prepared by the following method, using the human SLC-1 expressing CHO cell clone 57 obtained in Reference Example 1-10, and the rat SLC-1 expressing CHO cell clone 44 obtained in Reference Example 1-4.
The human and rat SLC-1 expressing CHO cells (1×10^8) were scraped in buffer saline phosphate (pH 7.4) to which 5 mM EDTA (ethylenediaminetetraacetic acid) had been added, and centrifuged. 10 ml of homogenized buffer (10 mM NaHCO3, 5 mM EDTA, pH 7.5) was added to the cell pellets, and they were homogenized using a Polytron homogenizer. […]
After this reaction mixture was allowed to react at 25° C. for 1 hour under stirring, it was filtered under vacuum using a glass filter (GF-C), then the filter was washed 3 times with 300 μl of washing solution (50 mM Tris-HCl buffer solution pH 7.5). 50 ml of liquid scintillator was added to the glass filter, and residual radioactivity was determined using a liquid scintillation counter.
The IC50 value of the compound was calculated from the binding inhibition rate (%), based on the definition that the binding inhibition rate (%)=(radioactivity when compound and MCH were added−radioactivity when DMSO solution was added)/(radioactivity when MCH was added−radioactivity when DMSO solution was added)×100.

**Q.** For `CN(C)CCCc1ccc2c(c1)CCCN2C(=O)c1ccc(-c2ccccc2)cc1` [Example 1, 3-[1-([1,1′-Biphenyl]-4-ylcarbonyl)-1,2,3,4-tetrahydro-6-quinolinyl]-N,N-dimethyl-1-propanamine], which IC50 is on record?
**A.** Its IC50 is 0.3 µM.

**Q.** Which IC50 does the source give for `CN(C)C/C=C/c1ccc2c(c1)CCCN2C(=O)c1ccc(-c2ccc(Cl)cc2)cc1` [Example 5, (E)-3-[1-[(4′-Chloro[1,1-biphenyl]-4-yl)carbonyl]-1,2,3,4-tetrahydro-6-quinolinyl]-N,N-dimethyl-2-propen-1-amine] here?
**A.** Its IC50 is 0.02 µM.

— patent US7229986B2, “Melanin-concentrating hormone antagonist” (Takeda Pharmaceutical Company Ltd., priority 2000, dated 2007)
